In patent US9169240B2, “Ketone linked benzothiazole inhibitors of endothelial lipase” (BRISTOL-MYERS SQUIBB COMPANY, priority 2012, dated 2015) one finds IC50 data, which are given here for 31 molecules.

Chain of Endothelial lipase (EL) (Q9Y5X9 21-500): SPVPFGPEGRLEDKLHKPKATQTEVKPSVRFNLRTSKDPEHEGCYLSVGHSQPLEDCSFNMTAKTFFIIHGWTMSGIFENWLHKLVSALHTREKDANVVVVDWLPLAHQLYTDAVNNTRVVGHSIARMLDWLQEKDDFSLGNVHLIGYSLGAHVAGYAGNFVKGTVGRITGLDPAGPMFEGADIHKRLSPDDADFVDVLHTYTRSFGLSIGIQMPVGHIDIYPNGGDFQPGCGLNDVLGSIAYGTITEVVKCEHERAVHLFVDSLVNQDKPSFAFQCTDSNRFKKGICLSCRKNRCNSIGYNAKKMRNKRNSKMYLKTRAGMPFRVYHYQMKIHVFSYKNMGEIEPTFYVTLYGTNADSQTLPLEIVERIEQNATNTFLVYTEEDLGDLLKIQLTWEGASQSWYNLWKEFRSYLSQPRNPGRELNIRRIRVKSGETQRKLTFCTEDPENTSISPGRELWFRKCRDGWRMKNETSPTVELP

The assay concerns the target Endothelial lipase (EL) (Homo sapiens (Human), UniProt Q9Y5X9). As to the kind of experiment: Endothelial lipase (EL) activity assay with fluorescent substrate A10070 in DMPG vesicles. The format is biochemical. The procedure: Endothelial lipase activity was measured using a fluorescent substrate, A10070, (Invitrogen, CA) doped into an artificial vesicle containing DMPG (Avanti Polar Lipids) as the excipient. Vesicles were prepared by combining 285 μL of 1 mM DMPG in a 1:1 mixture of MeOH and CHCl3 with 15 μL of 1 mM A10070 in a 1:1 mixture of MeOH and CHCl3. The mixture was dried under nitrogen and resuspended in 150 μL of 50 mM HEPES pH 8.0 buffer containing 100 mM NaCl and 0.2 mM EDTA. The sample was allowed to sit at rt for 15 min and then was sonicated 3×4 mins on ice with a Branson Sonicator using duty cycle 1. This preparation provides vesicles with a mole fraction of 0.05 for the FRET substrate.
The enzymatic assay was measured using white, opaque 96-well half area plates. Each well contained 60 μL of assay buffer (50 mM HEPES pH 8.0, 50 mM NaCl and 1 mM CaCl2) and 2 ul of a DMSO solution containing compound of interest. Conditioned media obtained from HT-1080 cells, which were transformed by RAGE technology (Athersys) to overexpress endogenous EL, was added and the reaction was allowed to incubate for 20 min at 37° C. with gentle agitation. The reaction was started by the addition of 20 μL of a 1:4 dilution of vesicles. The final total reaction volume was 100 μL. The reaction rates were measured on a Gemini plate reader with an excitation wavelength of 488 nm and an emission of 530 nm. Readings were taken every 20 seconds for 10 min with agitation between each reading. The slope of the linear portion of the readout was used to calculate the rate of the reaction.
`O=C(c1nnc(N(Cc2ccccc2)[C@H]2CCNC2=O)o1)c1nc2ccc(-c3ccccc3)cc2s1` [Example 87, (S)-3-(Benzyl(5-(6-phenylbenzo[d]thiazole-2-carbonyl)-1,3,4-oxadiazol-2-yl)amino)pyrrolidin-2-one]: the IC50 came to 11 nM.

`O=C(c1nnc(N[C@H]2CCOC2=O)o1)c1nc2ccc(-c3ccccc3)cc2s1` [Example 57, (S)-3-((5-(6-phenylbenzo[d]thiazole-2-carbonyl)-1,3,4-oxadiazol-2-yl)amino)dihydrofuran-2(3H)-one] had a half-inhibitory concentration (IC50) of 22 nM. Turning to `O=C(c1nnc(N(CC(F)(F)F)[C@H]2CCNC2=O)o1)c1nc2ccc(-c3ccccc3)cc2s1` [Example 84, (S)-3-((5-(6-Phenylbenzo[d]thiazole-2-carbonyl)-1,3,4-oxadiazol-2-yl)(2,2,2-trifluoroethyl)amino)pyrrolidin-2-one], the half-maximal inhibitory concentration (IC50) was less than 10 nM. In the case of `CC1(Cc2nnc(C(=O)c3nc4ccc(-c5ccccc5)cc4s3)o2)NC(=O)N(CC(F)(F)F)C1=O` (stereo not shown) [Example 38, 5-methyl-5-((5-(6-phenylbenzo[d]thiazole-2-carbonyl)-1,3,4-oxadiazol-2-yl)methyl)-3-(2,2,2-trifluoro-ethyl)imidazol-idine-2,4-dione], 11 nM corresponded to half-maximal inhibition (IC50). The molecule `O=C(c1nnc(N[C@@H]2CCNC2=O)o1)c1nc2ccc(-c3ccccc3)cc2s1` [Example 56, (R)-3-((5-(6-phenylbenzo[d]thiazole-2-carbonyl)-1,3,4-oxadiazol-2-yl)amino)pyrrolidin-2-one] registered an IC50 of 46 nM. The value for `CN(c1nnc(C(=O)c2nc3ccc(-c4ccccc4)cc3s2)o1)[C@H]1CCNC1=O` [Example 86, (S)-3-(Methyl(5-(6-phenylbenzo[d]thiazole-2-carbonyl)-1,3,4-oxadiazol-2-yl)amino)pyrrolidin-2-one] was 101 nM. Consider `O=C(c1nnc(NCCc2ccccc2F)o1)c1nc2ccc(-c3ccc(F)cc3)cc2s1` [Example 63, (5-((2-fluorophenethyl)amino)-1,3,4-oxadiazol-2-yl)(6-(4-fluorophenyl)benzo[d]thiazol-2-yl)methanone], for which the IC50 was determined as 290 nM.

Take `NC(=O)CNc1nnc(C(=O)c2nc3ccc(-c4ccccc4)cc3s2)o1` [Example 58, 2-((5-(6-phenylbenzo[d]thiazole-2-carbonyl)-1,3,4-oxadiazol-2-yl)amino) acetamide]: the midpoint of inhibition, the IC50, lay at 104 nM. In the case of `COC(=O)N[C@H]1CC[C@H](c2nnc(C(=O)c3nc4ccc(-c5ccccc5)cc4s3)o2)CC1` [Example 6, methyl ((1R,4R)-4-(5-(6-phenylbenzo[d]thiazole-2-carbonyl)-1,3,4-oxadiazol-2-yl)cyclohexyl)carbamate], the IC50 came to 99 nM.

The molecule `NC(=O)NCc1nnc(C(=O)c2nc3ccc(-c4ccccc4)cc3s2)o1` [Example 49, 1-((5-(6-Phenylbenzo[d]thiazole-2-carbonyl)-1,3,4-oxadiazol-2-yl)methyl)urea] had an IC50 of 25 nM.

With `O=C(c1nnc(N[C@H]2CCNC2=O)o1)c1nc2ccc(-c3ccc(OC(F)F)cc3)cc2s1` [Example 82, (S)-3-((5-(6-(4-(difluoromethoxy)phenyl)benzo[d]thiazole-2-carbonyl)-1,3,4-oxadiazol-2-yl)amino)pyrrolidin-2-one], the IC50 was less than 10 nM. Molecule `Nc1nnc(C(=O)c2nc3ccc(-c4ccccc4)cc3s2)o1` [Example 89, (5-Amino-1,3,4-oxadiazol-2-yl)(6-phenylbenzo[d]thiazol-2-yl)methanone] showed a concentration for half-maximal inhibition (IC50) of 29 nM.

With `O=C(c1nnc(NCCc2cccnc2)o1)c1nc2ccc(-c3ccccc3)cc2s1` [Example 76, (6-phenylbenzo[d]thiazol-2-yl)(5-((2-(pyridin-3-yl)ethyl)amino)-1,3,4-oxadiazol-2-yl)methanone], the IC50 was 36 nM. Consider `COCCNc1nnc(C(=O)c2nc3ccc(-c4ccccc4)cc3s2)o1` [Example 52, (5-((2-methoxyethyl)amino)-1,3,4-oxadiazol-2-yl)(6-phenylbenzo[d]thiazol-2-yl)methanone], for which the IC50 was 110 nM.

`NC(=O)c1ccc(-c2ccc3nc(C(=O)c4nnc(N[C@H]5CCNC5=O)o4)sc3c2)cc1` [Example 51, (S)-4-(2-(5-((2-Oxopyrrolidin-3-yl)amino)-1,3,4-oxadiazole-2-carbonyl)benzo[d]thiazol-6-yl)benzamide] showed a half-inhibitory concentration (IC50) of less than 10 nM. With `NC(=O)[C@@H](CCC(F)(F)F)Nc1nnc(C(=O)c2nc3ccc(-c4ccccc4)cc3s2)o1` [Example 75, (R)-5,5,5-trifluoro-2-((5-(6-phenylbenzo[d]thiazole-2-carbonyl)-1,3,4-oxadiazol-2-yl)amino) pentanamide], the midpoint of inhibition, the IC50, lay at 28 nM. In the case of `C[C@H](Nc1nnc(C(=O)c2nc3ccc(-c4ccc(F)cc4)cc3s2)o1)c1ccc(Cl)cc1` [Example 65, (S)-(5-((1-(4-chlorophenyl)ethyl)amino)-1,3,4-oxadiazol-2-yl)(6-(4-fluorophenyl)benzo[d]thiazol-2-yl)methanone], the IC50 worked out at 420 nM. The result for `CC1(Cc2nnc(C(=O)c3nc4ccc(-c5ccccc5)cc4s3)o2)NC(=O)NC1=O` (stereo not shown) [Example 33, 5-methyl-5-((5-(6-phenylbenzo[d]thiazole-2-carbonyl)-1,3,4-oxadiazol-2-yl)methyl)-imidazol-idine-2,4-dione] reads 21 nM; that for `O=C(c1nnc(CCC2CCN(CC3CC3)CC2)o1)c1nc2ccc(-c3ccccc3)cc2s1` [Example 19, (5-(2-(1-(cyclopropylmethyl)piperidin-4-yl)ethyl)-1,3,4-oxadiazol-2-yl)(6-phenylbenzo[d]thiazol-2-yl)methanone], 13 nM; that for `O=C(c1nnc(N[C@H]2CCN(CC(F)(F)F)C2=O)o1)c1nc2ccc(-c3ccccc3)cc2s1` [Example 91, (S)-3-((5-(6-Phenylbenzo[d]thiazole-2-carbonyl)-1,3,4-oxadiazol-2-yl)amino)-1-(2,2,2-trifluoroethyl)pyrrolidin-2-one], 490 nM. Molecule `Cc1ccc(S(=O)(=O)Nc2nnc(C(=O)c3nc4ccc(-c5ccccc5)cc4s3)o2)cc1` [Example 90, 4-Methyl-N-(5-(6-phenylbenzo[d]thiazole-2-carbonyl)-1,3,4-oxadiazol-2-yl)benzenesulfonamide] displayed a 50% inhibitory concentration (IC50) of 340 nM. The molecule `CC1(Cc2nnc(C(=O)c3nc4ccc(-c5ccccc5)cc4s3)o2)NC(=O)NC1=O` (stereo not shown) [Example 32, 5-methyl-5-((5-(6-phenylbenzo[d]thiazole-2-carbonyl)-1,3,4-oxadiazol-2-yl)methyl)-imidazol-idine-2,4-dione] yielded a 50% inhibitory concentration (IC50) of less than 10 nM. Turning to `O=C(c1nnc(CCc2ncc[nH]2)o1)c1nc2ccc(-c3ccccc3)cc2s1` [Example 8, (5-(2-(1H-imidazol-2-yl)ethyl)-1,3,4-oxadiazol-2-yl)(6-phenylbenzo[d]thiazol-2-yl)methanone], half-maximal inhibition (IC50) was put at 11 nM.

The molecule `O=C(c1nnc(C2CCN(c3ncccn3)CC2)o1)c1nc2ccc(-c3ccccc3)cc2s1` [Example 7, (6-phenylbenzo[d]thiazol-2-yl)(5-(1-(pyrimidin-2-yl)piperidin-4-yl)-1,3,4-oxadiazol-2-yl)methanone] gave an IC50 of less than 10 nM. For the molecule `CC(C)N1C(=O)NC(C)(Cc2nnc(C(=O)c3nc4ccc(-c5ccccc5)cc4s3)o2)C1=O` (stereo not shown) [Example 39, 3-isopropyl-5-methyl-5-((5-(6-phenylbenzo-[d]thiazole-2-carbonyl)-1,3,4-oxadiazol-2-yl)methyl)-imidazol-idine-2,4-dione], the IC50 was less than 10 nM. The value for `O=C(c1nnc(NCCc2ccc(Cl)cc2)o1)c1nc2ccc(-c3ccc(F)cc3)cc2s1` [Example 64, (5-((4-chlorophenethyl)amino)-1,3,4-oxadiazol-2-yl)(6-(4-fluorophenyl)benzo[d]thiazol-2-yl)methanone] was 6.6 nM; that for `CC(C)(C)OC(=O)N1CCC(CCc2nnc(C(=O)c3nc4ccc(-c5ccc(F)cc5)cc4s3)o2)CC1` [Example 15, tert-butyl 4-(2-(5-(6-(4-fluorophenyl)benzo[d]thiazole-2-carbonyl)-1,3,4-oxadiazol-2-yl)ethyl)piperidine-1-carboxylate] was less than 10 nM. With `CC(C)(C)OC(=O)N1CCC(c2nnc(C(=O)c3nc4ccc(-c5ccccc5)cc4s3)o2)CC1` [Example 20, tert-butyl 4-(5-(6-phenylbenzo[d]thiazole-2-carbonyl)-1,3,4-oxadiazol-2-yl)piperidine-1-carboxylate], the IC50 is less than 10 nM. Turning to `COc1ccc(CNc2nnc(C(=O)c3nc4ccc(-c5ccccc5)cc4s3)o2)c(OC)c1` [Example 69], half-maximal inhibition (IC50) required 310 nM. As to `O=C(c1nnc(C2CCN(c3ccc(C(F)(F)F)cc3)CC2)o1)c1nc2ccc(-c3ccccc3)cc2s1` [Example 13, (6-phenylbenzo[d]thiazol-2-yl)(5-(1-(4-(trifluoromethyl)phenyl)piperidin-4-yl)-1,3,4-oxadiazol-2-yl)methanone], the IC50 is less than 10 nM. The value for `O=C(c1nnc(C2CCN(Cc3ccc(OC(F)(F)F)cc3)CC2)o1)c1nc2ccc(-c3ccccc3)cc2s1` [Example 23, (6-Phenylbenzo[d]thiazol-2-yl)(5-(1-(4-(trifluoromethoxy)benzyl)piperidin-4-yl)-1,3,4-oxadiazol-2-yl)methanone] was less than 10 nM.

A word on the IC50: it is the concentration that inhibits the measured activity by half. Read a low IC50 as higher potency.
